Reference: patent US7385051B2, “Fluorescent N2,N3-etheno-purine (2′-deoxy) riboside derivatives and uses thereof” (Bar-llan University, priority 2005, dated 2008)
Entries after “also recorded” stand apart in the source; their conditions may differ.

How the values were obtained:
NTPDase2 [1] = biological target: T1, NTPDase2 (Homo sapiens, UniProt Q9Y5L3); assay: Hydrolysis as substrates of NTPDase2; format: biochemical; settings: substrate at 200 μM
T1 sequence (Q9Y5L3 1-495): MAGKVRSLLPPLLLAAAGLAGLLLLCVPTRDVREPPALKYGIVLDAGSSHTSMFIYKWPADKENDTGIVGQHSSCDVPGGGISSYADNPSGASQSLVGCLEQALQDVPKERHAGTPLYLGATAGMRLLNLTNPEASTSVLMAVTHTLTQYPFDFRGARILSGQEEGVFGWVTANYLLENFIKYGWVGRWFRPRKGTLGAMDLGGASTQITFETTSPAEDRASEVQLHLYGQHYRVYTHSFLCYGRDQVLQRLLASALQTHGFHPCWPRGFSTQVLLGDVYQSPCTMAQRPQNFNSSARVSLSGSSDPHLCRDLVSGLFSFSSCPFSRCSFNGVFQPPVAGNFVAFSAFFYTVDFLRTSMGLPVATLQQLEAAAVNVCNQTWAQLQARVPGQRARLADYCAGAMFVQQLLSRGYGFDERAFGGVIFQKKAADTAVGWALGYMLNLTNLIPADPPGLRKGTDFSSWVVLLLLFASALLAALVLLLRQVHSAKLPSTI
Protocol: (§1) For evaluation of the probes as substrates/inhibitors of NTPDase1 and 2, the analogues 30a-f were evaluated as either substrates or inhibitors of NTPDase1 and 2. We tested ATP and analogues 30 as substrates of NTPDases 1 and 2 at 100 μM for NTPDase1 and 200 μM for NTPDase2. All analogues were hydrolysed by NTPDases 1 and 2. NTPDase2 hydrolysed analogues 30 better than NTPDase1. When compared to ATP, the rate of hydrolysis of all analogues was lower for NTPDase1 and mostly similar for NTPDase2 (FIGS. 7A-7B).

NTPDase2 [2] = biological target: T1, NTPDase2; assay: Fluorescence spectra of the nucleotide with and without NTPDase2; format: biochemical; parameters: made in house; host or cells: COS-7 cells (transfected; lysate used as enzyme); settings: 200 μM nucleotide, excitation at 290 nm
Source text: Next, we tested whether N^2,N3-ε-A is suitable for probing ectonucleotidases. […] For this purpose, we measured the fluorescence spectra of 30a and its monophosphate homologue with and without human NTPDase2. We observed that the fluorescence intensity of the nucleotide decreased by ca. ⅓ upon the addition of the enzyme (not shown). This observation is consistent with the lower dielectric constant (polarity) of the protein as compared to that of the aqueous solution. Fluorescence intensity of the bound nucleotide, although lowered, still enables the application of this nucleotide as a fluorescent probe.
For the fluorescence studies of 30a-NTPDase2 complex, emission spectra of 30a and its monophosphate homologue, 30a′, were measured in the presence of human NTPDase2 using an Aminco-Bowman series 2 Luminescence Spectrometer. Measurement conditions included: 740-780 V sensitivity, 37° C. and excitation at 290 nm. The concentration of the samples was of the order of 2×10^−4 M in the NTPDase incubation mixture. Measurements of the emission spectra were performed in 1.5 ml of 200 μM 30a and 30a′, without enzyme. Enzyme was added (3.6 μg of transfected COS-7 cells lysate), then, emission spectra were measured at 5 min intervals. […]

rat brain P2Y1-receptor = biological target: T2, rat brain P2Y1-receptor (Rattus norvegicus, UniProt P49651); assay: Agonist-induced Ca2+ release in HEK 293 cells stably transfected with P2Y1-receptor; format: cell-based; settings: HEK 293 cells with rat brain P2Y1-receptor
T2 construct: expressed in transfected cells
Source text: To examine the efficacy of analogues 30a,d in a functional assay, we tested them by the agonist-induced Ca^2+ release in HEK 293 cells stably transfected with rat brain P2Y1-receptor (FIG. 6) (Voehringer et al., 2000). […] However, a benzyl substitution at N^6 of 30a, as in analogue 30d, reduced the ligand's potency. […] EC50 value in the range of 10^−6 M.

NTPDase1 = biological target: T3, NTPDase1 (Homo sapiens, UniProt P49961); assay: Hydrolysis as substrates of NTPDase1; format: biochemical; settings: substrate at 100 μM
T3 sequence (P49961 1-510): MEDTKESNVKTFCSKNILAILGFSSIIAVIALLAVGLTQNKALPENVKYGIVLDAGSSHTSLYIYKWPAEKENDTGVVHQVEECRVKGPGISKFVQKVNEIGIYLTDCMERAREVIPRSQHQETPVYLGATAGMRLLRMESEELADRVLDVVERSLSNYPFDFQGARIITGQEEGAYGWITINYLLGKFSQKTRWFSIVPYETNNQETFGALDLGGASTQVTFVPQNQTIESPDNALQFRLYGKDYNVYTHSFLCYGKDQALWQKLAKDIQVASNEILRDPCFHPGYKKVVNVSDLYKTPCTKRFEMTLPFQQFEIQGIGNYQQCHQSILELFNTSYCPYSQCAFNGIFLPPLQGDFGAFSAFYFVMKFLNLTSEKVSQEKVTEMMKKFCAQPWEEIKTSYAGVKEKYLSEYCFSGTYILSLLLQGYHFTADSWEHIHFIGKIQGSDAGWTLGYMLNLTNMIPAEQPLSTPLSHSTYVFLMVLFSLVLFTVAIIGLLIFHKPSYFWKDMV
Protocol: as §1

T2 sequence (P49651 whole entry): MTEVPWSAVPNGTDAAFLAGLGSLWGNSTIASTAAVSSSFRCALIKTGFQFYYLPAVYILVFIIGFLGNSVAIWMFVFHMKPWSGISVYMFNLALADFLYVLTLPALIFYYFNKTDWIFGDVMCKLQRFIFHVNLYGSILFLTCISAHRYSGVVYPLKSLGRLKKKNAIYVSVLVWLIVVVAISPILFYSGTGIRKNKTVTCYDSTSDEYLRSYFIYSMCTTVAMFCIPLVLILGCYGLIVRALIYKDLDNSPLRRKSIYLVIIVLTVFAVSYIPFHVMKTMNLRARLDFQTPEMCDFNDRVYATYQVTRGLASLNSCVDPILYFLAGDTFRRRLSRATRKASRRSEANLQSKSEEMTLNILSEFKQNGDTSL

Compound	Rate of hydrolysis by NTPDase2 compared to ATP (NTPDase2 [1])	Decrease of fluorescence intensity upon the addition of the enzyme (NTPDase2 [2]; human NTPDase2 (3.6 μg COS-7 lysate), 37° C.)	Shift of maximum emission upon the addition of the enzyme (NTPDase2 [2]; human NTPDase2, 37° C.)	EC50 (rat brain P2Y1-receptor; Ca^2+ release) [nM]	Potency at P2Y1-R compared to ATP / 30a (rat brain P2Y1-receptor)	Rate of hydrolysis by NTPDase1 compared to ATP (NTPDase1)
Nc1nc2nccn2c2c1ncn2C1OC(COP(=O)(O)OP(=O)(O)OP(=O)(O)O)C(O)C1O (stereo not shown) [Compound 30a, N^2,N3-ethenoadenosine-5′-triphosphate]	almost equipotent to ATP	ca. ⅓; also recorded: lower fluorescence intensity	does not shift	~100	almost equipotent with ATP; also recorded: almost equipotent to ATP	–
O=P(O)(O)OP(=O)(O)OP(=O)(O)OCC1OC(n2cnc3c(N(Cc4ccccc4)Cc4ccccc4)nc4nccn4c32)C(O)C1O (stereo not shown) [Compound 30e, N^6,N^6-Dibenzyl-N^2,N3-ethenoadenosine-5′-triphosphate]	less efficiently than ATP; also recorded: significant reduction of the affinities	–	–	–	–	less efficiently than ATP
